# Experimental data from patent US20250223559A1, “AXIOLOID: A STEM CELL-BASED MODEL OF HUMAN AXIAL DEVELOPMENT” (KYOTO UNIVERSITY, priority 2022, published 2025).
# System: human Axioloids
# Assay: scRNA-seq analysis of Axioloids (clusters, marker genes, differentially expressed genes)
# Format: cell-based
# Procedure: Axioloids were collected into wells of a 96-well plate and washed three times by transferring to another well filled with 0.1% BSA (SIGMA) in HBSS(-). Axioloids of the desired stage and number were then transferred to another well filled with 100 μl of enzyme P solution of the Neural Tissue Dissociation Kit (P) (Miltenyi Biotec) and incubated at 37° C. for 10 minutes. After adding 100 μl of 0.1% BSA in HBSS(-) Axioloids were dissociated by pipetting with an uncut P200 tip 20 times. The dissociated cells were filtered through Flowmi Cell Strainers with […] porosity (Merck) into a BSA-coated 2 ml tube (Eppendorf). Cells were washed twice in 1% BSA in HBSS(-) with centrifugation steps at 400×g for 6 minutes at room temperature. Cells were then resuspended in 1% BSA in HBSS(-) using a BSA-coated uncut-P200 tip and the concentration of the cell suspension was determined with hemocytometer. The cell suspension was subjected to library preparation using Chromium Next GEM Single Cell 3' Kit v3.1 (10× Genomics), aiming for a target cell recovery of 5000-10000. Library preparation was preformed following the instructions provided by the manufacturer 10X Genomics (CG000315 Rev B). The libraries were sequenced with NovaSeq 6000 Sequencing System (Illumina) using NovaSeq 6000 SP Reagent Kit v1.5 (100 Cycles) (Illumina, #20028401) and NovaSeq 6000 S1 Reagent Kit v1.5 (100 Cycles) (Illumina, #20028319) with the paired-end mode as described in the instructions by 10X Genomics (CG000315 Rev B). scRNA-seq data were first mapped to the human reference genome (hg38) to make matrices of UMI count for each gene and each cell using Cell Ranger (10X Genomics, version 6.0.1). Putative doublet clusters were removed using Scrublet (version 0.2.3) with the expected_doublet_rate set as 0.06^64. Then, the count data were imported into the Suerat package (version 4.0.3)^65 for the downstream analysis. […] The cell cycle scores and cell cycle phases were then determined as described before^66. […]
smiles,measurement,setting,value
"CC1=C(/C=C/C(C)=C/C=C/C(C)=C/C=O)C(C)(C)CCC1 [RAL, all trans-Retinal]",segregation of SM and TB clusters,"MG with vs without RA or RAL, 96 h and 120 h",clear segregation of the SM and TB clusters
same,"expression of TCF15, MEOX1, PAX3, PBX1, ZIC3, NR2F1, MEIS2","MG-embedded, exposed to RAL/RA",up-regulated
same,"MG-associated DEGs in SM (EMT genes, SFRP1, DKK1, FST, ID2, TFC15, PAX3)",addition of RA or RAL to MG,attenuated
